The source of these data is patent US7595173B2, “Low-cost production of peptides” (Dow Global Technologies Inc., priority 2002, dated 2009).

“Also recorded” adds a separate entry of the source. Ends that are not written are not given here.

For the experiment, the system named is E. coli strain BL21 (DE3). Put plainly: Antimicrobial activity: dose-dependent inhibition of E. coli growth (standard growth inhibition assay). The experiment is classed as cell-based. As for the experimental part: The antimicrobial activity of the cleaved peptides (same samples from Examples 5 and 6) was determined by measuring the dose-dependent inhibition of E. coli growth. The samples were tested for their ability to inhibit the growth of an overnight culture inoculated with E. coli strain BL21 (DE3). AMP samples were diluted serially into water in 96 well plates. Overnight cultures of E. coli BL21 (DE3) cells were diluted 1:50 into LB broth and 250 μl aliquots were transferred into 96-well plates. Each plate was incubated at 37° C. for one hour and then 50 μl of diluted peptide (or water) were added to each well. Each plate was incubated overnight at 37° C. and then the culture density was determined by measuring the apparent absorbance at 600 nm using a Spectromax Plus plate reader.

Consider “PFAKKFAKKFKKFAKKFAKFAFAFGD [D2A21 with an additional proline on the N-terminus and a glycine-aspartate dipeptide on its C-terminus]”, for which the “antimicrobial activity as compared to the D2A21 core/parent peptide” value was “equivalent antimicrobial activity; also recorded: did not adversely affect the activity”.
